Structures can show the parent of a compound that is named as a salt. Where a SMILES comes first, the peptide text is derived from it. [ ]: non-standard residue; d: D form. The star is where a group is joined. Benzoyl(4-Ph) = O=C(c1ccc(-c2ccccc2)cc1)*; Palmitoyl = CCCCCCCCCCCCCCCC(=O)*; NHhexadecyl = CCCCCCCCCCCCCCCCN*; 3Pal = N[C@@H](Cc1cccnc1)C(=O)O; 4Pal = N[C@@H](Cc1ccncc1)C(=O)O; X2 = O=C(c1ccc(-c2cccs2)s1)*; X1 = FC(F)(F)c1ccc(CN*)cc1; Pip = O=C(O)[C@@H]1CCCCN1; Octanoyl = CCCCCCCC(=O)*; NHOctyl = CCCCCCCCN*; Propionyl = CCC(=O)*; X3 = COc1cccc(CN*)c1; NHPr = CCCN*
Molecular target: T1, DENV protease (Dengue virus type 2, UniProt P29990)
T1 construct: The virus-encoded dengue protease comprises the amino-terminal 180 amino acids of NS3 (NS3pro) of the polyprotein
T1 sequence (P29990 1398-1437): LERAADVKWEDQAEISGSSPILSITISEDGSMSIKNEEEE
T1 sequence (P29990 1476-1653): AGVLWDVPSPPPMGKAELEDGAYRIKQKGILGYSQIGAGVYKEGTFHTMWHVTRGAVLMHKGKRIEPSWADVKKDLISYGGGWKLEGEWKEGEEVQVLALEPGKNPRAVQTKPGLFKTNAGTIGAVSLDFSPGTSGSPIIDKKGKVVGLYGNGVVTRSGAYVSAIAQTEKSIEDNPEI
Test: biochemical
Conditions: at 50 μM; read-out: inhibition of DENV
Experimental: Dilutions were made starting from 10 mM stock solutions in DMSO and final concentrations were measured in triplicates. The inhibitors were preincubated for 15 min with DENV protease (100 nM) in the assay buffer (50 mM Tris-HCl pH 9.0, ethylene glycol (10% v/v), and 0.0016% Brij 58). The enzymatic reaction was initiated by the addition of the FRET substrate (final concentration 50 μM) to obtain a final assay volume of 100 μL per well. The enzymatic activity was monitored for 15 min and determined as a slope of relative fluorescence units per second (RFU/s) for each concentration. The mean of the triplicates were plotted against the corresponding concentration in CDDVault to determine the IC50-values. Analogous procedures were used to determine the inhibitory potency on WNV (Kühl et al., J. Med. Chem. 2020, 63 (15): 8179-8197) and ZIKA protease (Nitsche et al., ACS Med. Chem. Lett. 2019 Feb. 14; 10 (2): 168-174). For selectivity screening of active candidates, similar biochemical assays with human serine proteases trypsin (Weigel et al., J. Med. Chem. 2015, 58 (19), 7719-7733.) and/or thrombin (Nitsche et al., J. Med. Chem. 2013, 56 (21), 8389-8403) were used.

| Structure (SMILES) | inhibition at 50 µM [%] |
| --- | --- |
| CCCCCCCCCCCCCCCC(=O)N[C@@H](CCCCN)C(=O)N1CCC[C@H]1C(=O)N[C@@H](C)C(=O)N[C@@H](CCCCN)c1nnc(C)o1 [compound 1] | ≥ 25 |
| CCCCCCCCCCCCCCCC(=O)N[C@@H](CCCCN)C(=O)N[C@@H](C)C(=O)N[C@@H](C)C(=O)N[C@H](CCCCN)c1nnc(C)o1 [compound 2] | ≥ 25 |
| CCCCCCCCCCCCCCCC(=O)N[C@@H](CCCCN)C(=O)N[C@@H](C)C(=O)N[C@@H](C)C(=O)N[C@H](CCc1ccccc1)c1nnc(C)o1 [compound 3] | ≥ 25 |
| CCCCCCCCCCCCCCCC(=O)N[C@@H](CCCCN)C(=O)N1CCC[C@H]1C(=O)N[C@@H](C)C(=O)N[C@@H](CCc1ccccc1)c1nnc(C)o1 [compound 4] | ≥ 25 |
| CCCCCCCCCCCCCCCC(=O)N[C@@H](C)C(=O)N1C[C@@H](Oc2ccncc2)C[C@H]1C(=O)N[C@@H](C)C(=O)N[C@@H](CCCCN)C(N)=O [compound 7] | ≥ 25 |
| CCCCCCCCCCCCCCCC(=O)N[C@@H](CCCCN)C(=O)N1CCC[C@H]1C(=O)N[C@@H](Cc1cnc[nH]1)C(=O)N[C@@H](CCCCN)C(N)=O [compound 12] (Palmitoyl-KPHK-NH2) | ≥ 25 |
| CCCCCCCCCCCCCCCC(=O)N[C@@H](CCCCN)C(=O)N1CCCC[C@H]1C(=O)N[C@@H](Cc1cnc[nH]1)C(=O)N[C@@H](CCCCN)C(N)=O [compound 14] (Palmitoyl-K[Pip]HK-NH2) | ≥ 25 |
| CCCCCCCCCCCCCCCC(=O)N[C@@H](CCCCN)C(=O)N1CCCC[C@H]1C(=O)N[C@@H](C)C(=O)N[C@@H](CCCCN)C(N)=O [compound 15] (Palmitoyl-K[Pip]AK-NH2) | ≥ 25 |
| CCCCCCCCNC(=O)[C@H](CCCCN)NC(=O)[C@H](CCCCN)NC(=O)[C@H](CCCCN)NC(=O)[C@H](CC(C)C)NC(=O)CCCCCCC [compound 19] (Octanoyl-LKKK-NHOctyl) | ≥ 25 |
| CCCNC(=O)[C@H](CCCCN)NC(=O)[C@H](CCCCN)NC(=O)[C@H](CCCCN)NC(=O)[C@H](C)NC(=O)CC [compound 21] (Propionyl-AKKK-NHPr) | ≥ 25 |
| CCCNC(=O)[C@H](CCCCN)NC(=O)[C@H](CCCCN)NC(=O)[C@H](CCCCN)NC(=O)[C@H](Cc1ccccc1)NC(=O)CC [compound 23] (Propionyl-FKKK-NHPr) | ≥ 25 |
| CCCCCCCCNC(=O)[C@H](CCCCN)NC(=O)[C@H](C)NC(=O)[C@H](CCCCN)NC(=O)[C@H](CC(C)C)NC(=O)CCCCCCC [compound 25] (Octanoyl-LKAK-NHOctyl) | ≥ 25 |
| CCCCCCCCNC(=O)[C@H](CCCCN)NC(=O)[C@H](CCCNC(=N)N)NC(=O)[C@H](C)NC(=O)[C@H](CCCNC(=N)N)NC(=O)CCCCCCC [compound 29] (Octanoyl-RARK-NHOctyl) | ≥ 25 |
| CCCCCCCCCCCCCCCCNC(=O)[C@H](CCCCN)NC(=O)[C@H](CCC(N)=O)NC(=O)[C@H](CCCNC(=N)N)NC(=O)[C@H](C)N [compound 32] (H-ARQK-NHhexadecyl) | ≥ 25 |
| COc1cccc(CNC(=O)[C@H](CCCCN)NC(=O)[C@H](CCC(N)=O)NC(=O)[C@H](CCCNC(=N)N)NC(=O)[C@H](C)NC(=O)c2ccc(-c3cccs3)s2)c1 [compound 36] (X2-ARQK-X3) | ≥ 25 |
| C[C@H](NC(=O)c1ccc(-c2ccccc2)cc1)C(=O)N[C@@H](CCCNC(=N)N)C(=O)N[C@@H](CCC(N)=O)C(=O)N[C@@H](CCCCN)C(N)=O [compound 37] ({Benzoyl(4-Ph)}-ARQK-NH2) | ≥ 25 |

| Structure (SMILES) | inhibition at 50 µM [%] |
| --- | --- |
| C[C@H](NC(=O)c1ccc(-c2ccccc2)cc1)C(=O)N[C@@H](CCCNC(=N)N)C(=O)N[C@@H](CCC(N)=O)C(=O)N[C@@H](CCCCN)C(=O)NCc1ccc(C(F)(F)F)cc1 [compound 38] ({Benzoyl(4-Ph)}-ARQK-X1) | ≥ 25 |
| CCCCCCCCCCCCCCCC(=O)N[C@@H](CCCNC(=N)N)C(=O)N[C@@H](CCC(N)=O)C(=O)N[C@@H](CCCCN)C(N)=O [compound 40] (Palmitoyl-Arg-Gln-Lys-NH2) | ≥ 25 |
| CCCCCCCCCCCCCCCC(=O)N[C@@H](CCCNC(=N)N)C(=O)N[C@@H](CCC(N)=O)C(=O)N[C@@H](CCCCN)C(=O)c1ccccc1 [compound 42] | ≥ 25 |
| CCCCCCCCCCCCCCCC(=O)N[C@@H](CCCNC(=N)N)C(=O)N[C@@H](CCC(N)=O)C(=O)N[C@@H](Cc1ccccc1)C(=O)O [compound 45] (Palmitoyl-Arg-Gln-Phe-OH) | ≥ 25 |
| CCCCCCCCCCCCCCCC(=O)N[C@@H](Cc1c[nH]cn1)C(=O)N[C@@H](CCC(N)=O)C(=O)N[C@@H](Cc1ccccc1)C(N)=O [compound 52] (Palmitoyl-His-Gln-Phe-NH2) | ≥ 25 |
| CCCCCCCCCCCCCCCC(=O)N[C@@H](CCCc1c[nH]c(N)n1)C(=O)N[C@@H](CCC(N)=O)C(=O)N[C@@H](Cc1ccccc1)C(N)=O [compound 56] | ≥ 25 |
| CCCCCCCCCCCCCCCC(=O)N[C@@H](CCc1ccncc1)C(=O)N[C@@H](CCC(N)=O)C(=O)N[C@@H](Cc1ccccc1)C(N)=O [compound 57] | ≥ 25 |
| CCCCCCCCCCCCCCCC(=O)N[C@@H](CCc1c[nH]cn1)C(=O)N[C@@H](CCC(N)=O)C(=O)N[C@@H](Cc1ccccc1)C(N)=O [compound 59] | ≥ 25 |
| CCCCCCCCCCCCCCCC(=O)N[C@@H](CCCNC(=N)N)C(=O)N[C@@H](CCC(N)=O)C(=O)N[C@@H](Cc1ccccc1)B(O)O [compound 60] | ≥ 25 |
| CC(=O)N[C@@H](C)C(=O)N[C@@H](CCCNC(=N)N)C(=O)N[C@@H](CCC(N)=O)C(=O)N[C@@H](Cc1ccccc1)B(O)O [compound 61] | ≥ 25 |
| CCCCCCCCCCCCCCCC(=O)N[C@@H](Cc1c[nH]c(N)n1)C(=O)N[C@@H](CCC(N)=O)C(=O)N[C@@H](Cc1ccccc1)C(N)=O [compound 62] | ≥ 25 |
| CCCCCCCCCCCCCCCC(=O)N[C@@H](Cc1ccncc1)C(=O)N[C@@H](CCC(N)=O)C(=O)N[C@@H](Cc1ccccc1)C(N)=O [compound 63] (Palmitoyl-[4Pal]-Gln-Phe-NH2) | ≥ 25 |
| CCCCCCCCCCCCCCCC(=O)N[C@@H](Cc1cccnc1)C(=O)N[C@@H](CCC(N)=O)C(=O)N[C@@H](Cc1ccccc1)C(N)=O [compound 64] (Palmitoyl-[3Pal]-Gln-Phe-NH2) | ≥ 25 |
| CCCCCCCCCCCCCCCC(=O)N[C@@H](CCCNc1ncc[nH]1)C(=O)N[C@@H](CCC(N)=O)C(=O)N[C@@H](Cc1ccccc1)C(N)=O [compound 65] | ≥ 25 |
| CCCCCCCCCCCCCCCC(=O)N[C@@H](CCNc1ncc[nH]1)C(=O)N[C@@H](CCC(N)=O)C(=O)N[C@@H](Cc1ccccc1)C(N)=O [compound 66] | ≥ 25 |
| CCCCCCCCCCCCCCCC(=O)N[C@@H](Cc1cccc(NC(=N)N)c1)C(=O)N[C@@H](CCC(N)=O)C(=O)N[C@@H](Cc1ccccc1)C(N)=O [compound 67] | ≥ 25 |

Same assay, conditions: read-out: inhibition of DENV

| Structure (SMILES) | inhibition at 50 µM [%] |
| --- | --- |
| CCCCCCCCCCCCCCCC(=O)N[C@@H](CCc1c[nH]c(N)n1)C(=O)N[C@@H](CCC(N)=O)C(=O)N[C@@H](Cc1ccccc1)C(N)=O [compound 55, (S)—N1—((S)-1-amino-1-oxo-3-phenylpropan-2-yl)-2-((S)-4-(2-amino-1H-imidazol-4-yl)-2-palmitamidobutanamido)pentanediamide TFA salt] | ≥ 25 |

Reference: patent publication US20250059231A1, “Protease inhibitors” (priority 2021, published 2025)
